Patent publication US20240287138A1, “CYCLIC PEPTIDES FOR INHIBITING TNF RECEPTOR 1 ACTIVITY” (Merck Sharp & Dohme LLC, priority 2023, published 2024)
Numbered stars: 1 amine (or outer) side, 2 acyl side, 3 side chain; on linkers, the order of the positions; unused ones are H or OH. Bridge positions count the residues as written; N and C are the ends. Square brackets hold non-standard residues; d marks the D form. Peptide text beside a SMILES is read from it. * marks the point of attachment. Trp(βS-Me,7-OMe) = COc1cccc2c([C@H](C)[C@H](N)C(=O)O)c[nH]c12; X24 = O=C(O)c1ccc([C@@H](O)[C@H](N[*:1])C(=O)[*:2])cc1; Morpholine(3S-CO,6,6-Me2) = CC1(C)CN[C@H](C(=O)O)CO1; Trp(7-CN) = N#Cc1cccc2c(C[C@H](N)C(=O)O)c[nH]c12; Trp(7-Cl) = N[C@@H](Cc1c[nH]c2c(Cl)cccc12)C(=O)O; Phe(3-CONH2) = NC(=O)c1cccc(C[C@H](N)C(=O)O)c1; Phe(4-CONH2) = NC(=O)c1ccc(C[C@H](N)C(=O)O)cc1; Phe(4-COOH) = N[C@@H](Cc1ccc(C(=O)O)cc1)C(=O)O; 4Pal(3S-Me) = C[C@@H](c1ccncc1)[C@H](N)C(=O)O; Trp(7-aza) = N[C@@H](Cc1c[nH]c2ncccc12)C(=O)O; Pip(5R-OH) = O=C(O)[C@@H]1CC[C@@H](O)CN1; X1 = O=C([C@@H]1CC[C@H](N[*:1])C1)[*:2]; Pip(4-aza) = O=C(O)[C@@H]1CNCCN1; 4Pal = N[C@@H](Cc1ccncc1)C(=O)O; NMeE = CN[C@@H](CCC(=O)O)C(=O)O; dHyp = O=C(O)[C@H]1C[C@H](O)CN1; aThr = C[C@H](O)[C@H](N)C(=O)O; Ahp(2) = CCCCC[C@H](N)C(=O)O; αMeS = C[C@](N)(CO)C(=O)O; Carboxymethyl = O=C(O)C*; Nle = CCCC[C@H](N)C(=O)O; Sar = CNCC(=O)O

Legend:
[1] = target: T1, human TNFR1 extracellular domain (ECD) protein (Homo sapiens, UniProt P19438); experiment: SPR binding affinity to captured human TNFR1 ECD
T1 construct: HRV 3C protease cleavage site (C); 6His (C, cleaved yes); made in house; host or cells: Sf21 insect cells (baculovirus), secreted
T1 sequence (P19438 30-211): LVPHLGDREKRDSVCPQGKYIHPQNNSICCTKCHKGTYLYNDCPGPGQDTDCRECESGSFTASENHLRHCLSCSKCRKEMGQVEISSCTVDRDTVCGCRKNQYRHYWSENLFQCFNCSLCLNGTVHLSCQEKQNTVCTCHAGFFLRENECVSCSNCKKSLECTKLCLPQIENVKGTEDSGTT
Method in brief: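 Biotinylated human TNFR1 or TNFR2 ECD (C-terminal Avi-tag, Sf21-expressed) captured on a regenerable streptavidin chip; peptide analytes flowed in 10 mM HEPES pH 7.4, 150 mM NaCl, 3 mM EDTA, 0.05% P20, 2% DMSO. kon and koff measured; affinity calculated from the rate constants.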

[2] = target: T2, human soluble TNFR1 (sTNFR1) (Homo sapiens, UniProt P19438); experiment: Human sTNFR1-peptide displacement assay (LanthaScreen Eu TR-FRET binding assay)
T2 construct: made in house; host or cells: Sf21 (baculovirus)
T2 sequence (P19438 with tags, fused parts or gaps): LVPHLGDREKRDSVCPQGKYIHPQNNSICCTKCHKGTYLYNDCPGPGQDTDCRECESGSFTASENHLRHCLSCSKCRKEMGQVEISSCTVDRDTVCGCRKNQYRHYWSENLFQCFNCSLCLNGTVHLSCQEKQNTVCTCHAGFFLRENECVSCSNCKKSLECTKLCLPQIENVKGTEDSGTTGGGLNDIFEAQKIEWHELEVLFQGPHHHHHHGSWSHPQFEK
Method in brief: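 Readout is the 665/615 nm TR-FRET ratio (Eu anti-His donor, streptavidin-Alexa647 acceptor), normalized to DMSO and saturating displacer, fit by Morrison-based five-parameter logistic for Kd^app. His-tagged sTNFR1 (1-211) prebound to 100 nM biotinylated peptide SEQ ID NO.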

Row | SMILES | Kd [1] [nM] | Kd [2] [nM] | IC50 [2] [nM]
1 | CCCCC[C@@H]1NC(=O)[C@@H]2CC[C@@H](C2)NC(=O)[C@H]([C@@H](C)c2c[nH]c3c(OC)cccc23)NC(=O)CN(C)C(=O)[C@H](Cc2cccc(C(N)=O)c2)NC(=O)[C@H](Cc2ccc(C(N)=O)cc2)NC(=O)[C@](C)(CO)NC(=O)[C@H](Cc2c[nH]c3c(C#N)cccc23)NC(=O)[C@H](Cc2ccncc2)NC(=O)[C@H](CC(N)=O)NC(=O)[C@H]2C[C@H](O)CN2C(=O)[C@H](Cc2c[nH]c3ccccc23)NC(=O)[C@@H]2CNCCN2C(=O)[C@H](Cc2ccncc2)NC1=O [SEQ ID NO. 174] (cyclo([4Pal][Trp(7-CN)][αMeS][Phe(4-CONH2)][Phe(3-CONH2)][Sar][Trp(βS-Me,7-OMe)][X1][Ahp(2)][4Pal][Pip(4-aza)]W[dHyp]N)) | 0.01 | 0.06 | 
2 | CCCC[C@@H]1NC(=O)CSC[C@@H](C(N)=O)NC(=O)[C@H]([C@@H](C)c2c[nH]c3c(OC)cccc23)NC(=O)CN(C)C(=O)[C@H](Cc2ccc(O)cc2)NC(=O)[C@H](Cc2ccc(C(=O)O)cc2)NC(=O)[C@](C)(CO)NC(=O)[C@H](Cc2c[nH]c3c(Cl)cccc23)NC(=O)[C@H](Cc2ccc(OCC(=O)O)cc2)NC(=O)[C@H](CC(N)=O)NC(=O)[C@H](CCC(=O)O)N(C)C(=O)[C@H](Cc2c[nH]c3ccccc23)NC(=O)[C@@H]2COC(C)(C)CN2C(=O)[C@H](Cc2ccncc2)NC1=O [SEQ ID NO. 179] ({CH2CO}-[Nle][4Pal][Morpholine(3S-CO,6,6-Me2)]W[NMeE]NY(Carboxymethyl)[Trp(7-Cl)][αMeS][Phe(4-COOH)]Y[Sar][Trp(βS-Me,7-OMe)]C-NH2; thioether N-14) | 0.14 | 0.29 | 0.5
3 | CCCC[C@@H]1NC(=O)CSC[C@@H](C(N)=O)NC(=O)[C@H]([C@@H](C)c2c[nH]c3c(OC)cccc23)NC(=O)CN(C)C(=O)[C@H](Cc2ccc(O)cc2)NC(=O)[C@H](Cc2ccc(C(=O)O)cc2)NC(=O)[C@](C)(CO)NC(=O)[C@H](Cc2c[nH]c3c(Cl)cccc23)NC(=O)[C@H](Cc2ccncc2)NC(=O)[C@H](CC(N)=O)NC(=O)[C@H](CCC(=O)O)N(C)C(=O)[C@H](Cc2c[nH]c3ncccc23)NC(=O)[C@H](CO)NC(=O)[C@H]([C@@H](C)c2ccncc2)NC1=O [SEQ ID NO. 180] ({CH2CO}-[Nle][4Pal(3S-Me)]S[Trp(7-aza)][NMeE]N[4Pal][Trp(7-Cl)][αMeS][Phe(4-COOH)]Y[Sar][Trp(βS-Me,7-OMe)]C-NH2; thioether N-14) | 0.05 | 0.18 | 0.3
4 | CCCC[C@@H]1NC(=O)[C@@H]2CC[C@@H](C2)NC(=O)[C@H]([C@@H](C)c2c[nH]c3c(OC)cccc23)NC(=O)CN(C)C(=O)[C@H](Cc2ccc(C(=O)O)cc2)NC(=O)[C@H](Cc2ccc(C(N)=O)cc2)NC(=O)[C@](C)(CO)NC(=O)[C@H](Cc2c[nH]c3c(Cl)cccc23)NC(=O)[C@H](Cc2ccncc2)NC(=O)[C@H]([C@H](C)O)NC(=O)[C@H]2C[C@H](O)CN2C(=O)[C@H](Cc2c[nH]c3ccccc23)NC(=O)[C@@H]2CC[C@@H](O)CN2C(=O)[C@H](Cc2ccncc2)NC1=O [SEQ ID NO. 187] (cyclo([4Pal][Trp(7-Cl)][αMeS][Phe(4-CONH2)][Phe(4-COOH)][Sar][Trp(βS-Me,7-OMe)][X1][Nle][4Pal][Pip(5R-OH)]W[dHyp][aThr])) | 0.04 | 0.09 | 
5 | CCCC[C@@H]1NC(=O)[C@@H]2CC[C@@H](C2)NC(=O)[C@H]([C@@H](C)c2c[nH]c3c(OC)cccc23)NC(=O)CN(C)C(=O)[C@H]([C@H](O)c2ccc(C(=O)O)cc2)NC(=O)[C@H](Cc2ccc(C(N)=O)cc2)NC(=O)[C@](C)(CO)NC(=O)[C@H](Cc2c[nH]c3c(Cl)cccc23)NC(=O)[C@H](Cc2ccncc2)NC(=O)[C@H](CC(N)=O)NC(=O)[C@H]2C[C@H](O)CN2C(=O)[C@H](Cc2c[nH]c3ccccc23)NC(=O)[C@@H]2CC[C@@H](O)CN2C(=O)[C@H](Cc2ccncc2)NC1=O [SEQ ID NO. 188] (cyclo([4Pal][Trp(7-Cl)][αMeS][Phe(4-CONH2)][X24][Sar][Trp(βS-Me,7-OMe)][X1][Nle][4Pal][Pip(5R-OH)]W[dHyp]N)) | 0.03 | 0.1 | 
